Source: US20240041039A1, “COMPOSITIONS AND METHODS FOR CONTROLLING PLANT PATHOGENS INCLUDING NEMATODES” (Kannar Earth Science, Ltd., priority 2022, published 2024)

Tested on: root knot Meloidogyne sp. nematodes
Assay: Two-minute contact of live root-knot nematodes with water-based solutions in watch glass
Format: in vivo
Conditions: one drop of water-based solution, fatality recorded within 45 seconds
Method: Live root knot nematodes were collected from soil and kept in shallow water in small glass beakers at room temperature. The individual components and combined formulation were prepared according to the following procedures. Aqueous solutions of individual components were prepared at the concentrations as follows: 400 ppm baicalin (95% purity; Shaanxi Darwin Biotech Co, China), 500 ppm water soluble chitosan (85% purity; Shaanxi Rainwood Biotech Co Ltd, China) and 200 ppm L-glutathione (99% purity; Hunan Insen Biotech Co Ltd, China). Since use of liquid polymer is quite common in seed treatment for better and smoother coating or coverage, each of the individual components and combinations of the components was also prepared as a solution in a cellulose-based carrier (Slurry Buddy 110 from […] Science, Ltd.). Baicalin was dissolved in 1.0 ml of DMSO separately prior to addition to the carrier. Chitosan and glutathione were dissolved in 7.8 ml water prior to addition to the 90.0 ml carrier. In each case, the pH of the solution was adjusted to 5.7. […] This liquid flowable formulation can be used as a ready-to-use (RTU) formulation for seed application. […] One drop of the water-based solutions described above was added to the watch glass with the swimming nematode and the reaction of the nematode was recorded for a period of two-minutes. […]

Row | SMILES | Nematode Reaction
1 | O=C(O)[C@H]1O[C@@H](Oc2cc3oc(-c4ccccc4)cc(=O)c3c(O)c2O)[C@H](O)[C@@H](O)[C@@H]1O [Baicalin, baicalin] | Repelling
2 | N[C@@H](CCC(=O)N[C@@H](CS)C(=O)NCC(=O)O)C(=O)O [Glutathione, L-glutathione] | Repelling
